US20230295087A1, “AGONISTS OF ROR GAMMAt” (BRISTOL-MYERS SQUIBB COMPANY, priority 2019, published 2023)

Target: T1, human RORgT (Homo sapiens, UniProt P51449)
T1 construct: expressed in transfected cells
T1 sequence (P51449 267-516): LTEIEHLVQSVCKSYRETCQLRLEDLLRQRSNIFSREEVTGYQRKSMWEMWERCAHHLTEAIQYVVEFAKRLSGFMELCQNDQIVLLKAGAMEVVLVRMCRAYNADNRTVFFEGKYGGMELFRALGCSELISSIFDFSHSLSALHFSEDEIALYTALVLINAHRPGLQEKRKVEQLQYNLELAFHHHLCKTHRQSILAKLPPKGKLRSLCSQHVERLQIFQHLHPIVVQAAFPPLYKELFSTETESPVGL
Assay: RORgT Gal4 Luciferase Reporter Gene Assay
Format: cell-based
Settings: engineered Jurkat cells overexpressing RORgT (LBD or full length) fused with Gal4 Luc reporter; 18 hours at 37° C.; luminescence
Method: RORgT Gal4 Luciferase Reporter Gene Assay
25 µL of cryopreserved Jurkat cells over expressing ligand binding domain (LBD) of RORgT (aa267-516, NM_005060) and Gal4 Luc, or full length of human RORgT and Gal4 Luc, were plated in 384-well solid white cell culture plates (PerkinElmer 6007899), with a density of 10,000 cells/well in RPMI 1640 cell culture media (Gibco 11875-085). The media contained 0.1% BSA, 10 mM HEPES (Gibco 15360-080), […] Sodium Pyruvate (Gibco 11360-040), […] Hygromycin B (Invitrogen 10687-010), and […] Blasticidin (Invitrogen R210-01).
100 nL of compound at varying concentrations in 3-fold serial dilution, with final concentrations ranging from 40 µM to 0.67 nM, were added to the cells using Labcyte Echo 550. The compound and the cells were incubated for 18 hours at 37° C. in a cell culture incubator. Cells were then lysed with 15 uL of Steady-Glo Luciferase Assay reagent (Promega EZ550), followed by centrifuging the assay plates at 1500 RPM for 1 minute. Subsequently, the plates were read on the Envision (PerkinElmer). The inhibition of constitutive activity of RORgT achieved by graded concentrations of compound was calculated as a percentage of the luminescence signal window reduction over a control compound.

| EC50 [nM] | SMILES |
| --- | --- |
| 8.2 | O=C(CC1CCS(=O)(=O)C1)N1CC[C@@]2(S(=O)(=O)c3ccc(F)cc3)c3ccc(OCc4c(F)cccc4C(F)(F)F)cc3CC[C@@H]12 (mixture of isomers) [Example 17] |
| 10 | O=C(O)[C@H]1CC[C@H](C(=O)N2CC[C@@]3(S(=O)(=O)c4ccc(F)cc4)c4ccc(Oc5c(F)cccc5C(F)(F)F)cc4CC[C@@H]23)CC1 [Example 4, (1R,4r)-4-((3aR,9bR)-7-(2-fluoro-6-(trifluoromethyl)phenoxy)-9b-((4-fluorophenyl)sulfonyl)-2,3,3a,4,5,9b-hexahydro-1H-benzo[e]indole-3-carbonyl)cyclohexane-1-carboxylic acid] |
| 39 | O=C(O)[C@H]1CC[C@H](CN2CC[C@@]3(S(=O)(=O)c4ccc(F)cc4)c4ccc(OCc5c(F)cccc5C(F)(F)F)cc4CC[C@@H]23)CC1 [Example 10] |
| 1.5 | O=C(C1CCC(B(O)O)CC1)N1CC[C@@]2(S(=O)(=O)c3ccc(F)cc3)c3ccc(OCc4c(F)cccc4C(F)(F)F)cc3CC[C@@H]12 (stereo partly drawn) [Example 13, (4-((3aR,9bR)-7-((2-fluoro-6-(trifluoromethyl)benzyl)oxy)-9b-((4-fluorophenyl)sulfonyl)-2,3,3a,4,5,9b-hexahydro-1H-benzo[e]indole-3-carbonyl)cyclohexyl)boronic acid] |
| 1.8 | O=C(C1CCC(B(O)O)CC1)N1CC[C@@]2(S(=O)(=O)c3ccc(F)cc3)c3ccc(OCc4c(F)cccc4C(F)(F)F)cc3CC[C@@H]12 (stereo partly drawn) [Example 14, (4-((3aR,9bR)-7-((2-fluoro-6-(trifluoromethyl)benzyl)oxy)-9b-((4-fluorophenyl)sulfonyl)-2,3,3a,4,5,9b-hexahydro-1H-benzo[e]indole-3-carbonyl)cyclohexyl)boronic acid] |
| 6 | O=C(C1CCS(=O)(=O)C1)N1CC[C@@]2(S(=O)(=O)c3ccc(F)cc3)c3ccc(OCc4c(F)cccc4Cl)cc3CC[C@@H]12 (stereo partly drawn) [Example 18, 3-[(3aR,9bR)-7-[(2-chloro-6-fluorophenyl)methoxy]-9b-(4-fluorobenzenesulfonyl)-1H,2H,3H,3aH,4H,5H,9bH-benzo[e]indole-3-carbonyl]-1λ^6-thiolane-1,1-dione] |
| 14 | CC1(C(=O)N2CC[C@@]3(S(=O)(=O)c4ccc(F)cc4)c4ccc(OCc5c(F)cccc5C(F)(F)F)cc4CC[C@@H]23)CCS(=O)(=O)CC1 [Example 19] |
| 42 | O=C([C@@H](O)C(F)(F)F)N1CC[C@@]2(S(=O)(=O)c3ccc(F)cc3)c3ccc(OCc4c(F)cccc4C(F)(F)F)cc3CC[C@@H]12 [Example 20, (2R)-1-[(3aR,9bR)-7-{[2-fluoro-6-(trifluoromethyl)phenyl]methoxy} -9b-(4-fluorobenzenesulfonyl)-1H,2H,3H,3aH,4H,5H,9bH-benzo[e]indol-3-yl]-3,3,3-trifluoro-2-hydroxypropan-1-one] |
| 20 | C[C@]1(C(=O)O)CC[C@H](C(=O)N2CC[C@@]3(S(=O)(=O)c4ccc(F)cc4)c4ccc(OCc5c(F)cccc5C(F)(F)F)cc4CC[C@@H]23)CC1 [Example 25, (1r,4r)-4-[(3aR,9bR)-7-{[2-fluoro-6-(trifluoromethyl)phenyl]methoxy}-9b-(4-fluorobenzenesulfonyl)-1H,2H,3H,3aH,4H,5H,9bH-benzo[e]indole-3-carbonyl]-1-methylcyclohexane-1-carboxylic acid] |

Second part, the compound before the results:

| SMILES | EC50 [nM] |
| --- | --- |
| O=C(O)[C@H]1CC[C@H](C(=O)N2CC[C@@]3(S(=O)(=O)c4ccc(F)cc4)c4ccc(OCc5c(F)cccc5Cl)cc4CC[C@@H]23)CC1 [Example 1, (1r,4r)-4-[(3aR,9bR)-7-[(2-chloro-6-fluorophenyl)methoxy]-9b-(4-fluorobenzenesulfonyl)-1H,2H,3H,3aH,4H,5H,9bH-benzo[e]indole-3-carbonyl]cyclohexane-1-carboxylic acid] | 8.4 |
| O=C(O)[C@H]1CC[C@H](C(=O)N2CC[C@@]3(S(=O)(=O)c4ccc(F)cc4)c4ccc(CCc5c(Cl)cccc5Cl)cc4CC[C@@H]23)CC1 [Example 2, (1r,4r)-4-[(3aR,9bR)-7-[2-(2,6-dichlorophenyl)ethyl]-9b-(4-fluorobenzenesulfonyl)-1H,2H,3H,3aH,4H,5H,9bH-benzo[e]indole-3-carbonyl]cyclohexane-1-carboxylic acid] | 6.8 |
| O=C(O)[C@H]1CC[C@H](C(=O)N2CC[C@@]3(S(=O)(=O)c4ccc(F)cc4)c4ccc(Cc5c(F)cccc5Cl)cc4CC[C@@H]23)CC1 [Example 5, (1R,4r)-4-((3aR,9bR)-7-(2-chloro-6-fluorobenzyl)-9b-((4-fluorophenyl)sulfonyl)-2,3,3a,4,5,9b-hexahydro-1H-benzo[e]indole-3-carbonyl)cyclohexanecarboxylic acid] | 7.1 |
| O=C(O)[C@H]1CC[C@H](C(=O)N2CC[C@@]3(S(=O)(=O)c4ccc(F)cc4)c4ccc(COc5c(Cl)cccc5Cl)cc4CC[C@@H]23)CC1 [Example 6, (1R,4r)-4-((3aR,9bR)-7-((2,6-dichlorophenoxy)methyl)-9b-((4-fluorophenyl)sulfonyl)-2,3,3a,4,5,9b-hexahydro-1H-benzo[e]indole-3-carbonyl)cyclohexanecarboxylic acid] | 2.4 |
| CC1(C(=O)N2CC[C@@]3(S(=O)(=O)c4ccc(F)cc4)c4ccc(OCc5c(F)cccc5Cl)cc4CC[C@@H]23)CCS(=O)(=O)CC1 [Example 7, ((3aR,9bR)-7-((2-chloro-6-fluorobenzyl)oxy)-9b-((4-fluorophenyl)sulfonyl)-4,5-dihydro-1H-benzo[e]indol-3(2H,3aH,9bH)-yl)(4-methyl-1,1-dioxidotetrahydro-2H-thiopyran-4-yl)methanone] | 22 |
| C[C@]1(C(=O)N2CC[C@@]3(S(=O)(=O)c4ccc(F)cc4)c4ccc(OCc5c(F)cccc5Cl)cc4CC[C@@H]23)CC[C@H](C(=O)O)CC1 [Example 9, (1R,4r)-4-((3aR,9bR)-7-((2-chloro-6-fluorobenzyl)oxy)-9b-((4-fluorophenyl)sulfonyl)-2,3,3a,4,5,9b-hexahydro-1H-benzo[e]indole-3-carbonyl)-4-methylcyclohexanecarboxylic acid] | 17 |
| Cc1ccccc1Cc1ccc2c(c1)CC[C@H]1N(C(=O)[C@]3(C)CC[C@@H](C(=O)O)CC3)CC[C@@]21S(=O)(=O)c1ccc(F)cc1 [Example 12, (1R,4r)-4-((3aR,9bR)-9b-((4-fluorophenyl)sulfonyl)-7-(2-methylbenzyl)-2,3,3a,4,5,9b-hexahydro-1H-benzo[e]indole-3-carbonyl)-4-methylcyclohexane-1-carboxylic acid] | 19 |
| O=C(CC1CCS(=O)(=O)C1)N1CC[C@@]2(S(=O)(=O)c3ccc(F)cc3)c3ccc(OCc4c(F)cccc4Cl)cc3CC[C@@H]12 (stereo partly drawn) [Example 15, 3-{2-[(3aR,9bR)-7-[(2-chloro-6-fluorophenyl)methoxy]-9b-(4-fluorobenzenesulfonyl)-1H,2H,3H,3aH,4H,5H,9bH-benzo[e]indol-3-yl]-2-oxoethyl}-1λ^6-thiolane-1,1-dione] | 3.8 |
| O=C(N1CC[C@@]2(S(=O)(=O)c3ccc(F)cc3)c3ccc(OCc4c(F)cccc4Cl)cc3CC[C@@H]12)C1(O)CCS(=O)(=O)CC1 [Example 16, 4-[(3aR,9bR)-7-[(2-chloro-6-fluorophenyl)methoxy]-9b-(4-fluorobenzenesulfonyl)-1H,2H,3H,3aH,4H,5H,9bH-benzo[e]indole-3-carbonyl]-4-hydroxy-1λ^6-thiane-1,1-dione] | 5.5 |
| C[C@]1(C(=O)O)CC[C@H](C(=O)N2CC[C@@]3(S(=O)(=O)c4ccc(F)cc4)c4ccc(OCc5c(F)cccc5Cl)cc4CC[C@@H]23)CC1 [Example 21, (1r,4r)-4-[(3aR,9bR)-7-[(2-chloro-6-fluorophenyl)methoxy]-9b-(4-fluorobenzenesulfonyl)-1H,2H,3H,3aH,4H,5H,9bH-benzo[e]indole-3-carbonyl]-1-methylcyclohexane-1-carboxylic acid] | 10 |
| C[C@@H]1C[C@@H](C(=O)O)CC[C@@H]1C(=O)N1CC[C@@]2(S(=O)(=O)c3ccc(F)cc3)c3ccc(OCc4c(F)cccc4Cl)cc3CC[C@@H]12 [Example 22, (1S,3R,4S)-4-[(3aR,9bR)-7-[(2-chloro-6-fluorophenyl)methoxy]-9b-(4-fluorobenzenesulfonyl)-1H,2H,3H,3aH,4H,5H9bH-benzo[e]indole-3-carbonyl]-3-methylcyclohexane-1-carboxylic acid] | 17 |
| O=C(O)[C@H]1CC[C@](O)(C(=O)N2CC[C@@]3(S(=O)(=O)c4ccc(F)cc4)c4ccc(OCc5c(F)cccc5Cl)cc4CC[C@@H]23)CC1 [Example 23, (1s,4s)-4-[(3aR,9bR)-7-[(2-chloro-6-fluorophenyl)methoxy]-9b-(4-fluorobenzenesulfonyl)-1H,2H,3H,3aH,4H,5H,9bH-benzo[e]indole-3-carbonyl]-4-hydroxycyclohexane-1-carboxylic acid] | 55 |
